Laboratory results published in patent US4857549A, “Antitumor compounds” (priority 1988, dated 1989).
Values joined by “and” are separate entries in the source; they are usually repeats but may differ in a detail not shown here. Equal values may be shown once. Read-outs that look alike come from different tables or passages of the source.

Legend:
[1] = system: B16 melanoma cells (highly metastatic subline, F10); test: B16 melanoma in vitro cloning (colony forming) assay, 2 hour exposure; type: cell-based; conditions: read-out: IC50: concentration which inhibits cloning efficiency of B16 melanoma cells by 50%
Procedure: Initially, the cytotoxic activity of the Formula (I) and Formula (IA) compounds used in the pharmaceutical compositions and methods of treatment of the instant invention was evaluated in vitro using B16 melanoma cells according to the following assay:
B16 melanoma (highly metastatic subline, F10) are used and maintained as monolayer cultures in Minimal Essential Media (Grand Island Biological Co., Grand Island, N.Y. ) supplemented with 10% calf serum, 1% antibiotics in a 5% CO2 humidified incubator at 37° C. Asynchronous populations of cells are harvested and replated to 5000 cells/plate in sterile 60 mm×15 mm petri plates. Plates are incubated overnight to allow attachment of the cells to the plate. Cells are treated with a Formula (I) or Formula (IA) compound or cisplatin under sterile conditions, allowed to react for 2 hours followed by aspiration of medium. Plates are washed one time with 5 ml of phosphate buffered saline (PBS), followed by the addition of 5 ml of fresh media. Plates are incubated for 5 days at 37° in a CO2 incubator. Viability is measured by the ability of a cell to form a colony of greater than 50 cells. Colonies are fixed with 0.5% crystal violet in 95% ethanol. Plates are dried and counted with a Biotran III Automatic Count Totalizer (New Brunswick Scientific Co., Edison, N.J.). Mean and standard deviation of triplicate samples are determined for each drug concentration. The data are analyzed by plotting the log of the survival fraction (number of colonies in drug treated plates/number of colonies in controls) versus the drug concentration.
^(a) concentration which inhibits cloning efficiency of B16 melanoma
cells by 50% on a 2hour exposure.

[2] = system: M5076 reticulum cell sarcoma; test: ip M5076 reticulum cell sarcoma assay in mice; conditions: for MTD (maximally tolerated dose): B6D2F1 female mice; for MTD (maximally tolerated dose) / ILS max (maximum increase in lifespan): ip qD × 10; for ILS max (maximum increase in lifespan): ip M5076 sarcoma mice, slash = separate experiments; for activity in the ip M5076 reticulum cell sarcoma assay: in words, based on Tables C and D
Procedure: (§1) Another chemosensitive tumor model is intraperitoneally (ip) implanted M5076 reticulum cell sarcoma in mice. In this system B6D2F1 female mice are inoculated with 0.5 ml of a 10 percent weight:volume (w:v) brei of M5076 prepared from pooled subcutaneous (sc) tumors excised at about 21 days from c57B1/6 donor mice. Drugs are administered ip. Daily treatment is begun 24 hours after implantation and is continued for ten days. The treatment regimen for M5076 is more prolonged than for P388 because of the slower growth rate and longer control survival time of the M5076 tumor.

[3] = ADJ-PC6 plasmacytoma assay; conditions: mouse, in vivo, ip
Procedure: (§2) Tumor cells are carried by serial sc passage in BALB/c female mice and then collected aseptically on ca. Day 21 and minced in Hank's balanced salt solution. The cells are then dispersed by homogenization in a loose-fitting teflon glass homogenizer, and cell concentration is adjusted to 4×10^6 viable ([…]) cells per ml by hemocytometer counts. A total of 0.5 ml (2×10^6 cells) is implanted sc on the right flank of BALB/c female mice in groups of 8. Treatment is given ip on Days 1-10, and tumors are measured in perpendicular diameters with a vernier caliper on Day 18.
(§3) ^(b) maximally tolerated dose for BALB/c female mice on an ip qD

ADJ-PC6 Plasmacytoma = test: ADJ-PC6 plasmacytoma assay
Procedure: as §2, §3

[4] = ip Lewis Lung tumor assay; type: in vivo; design: ILS: dose or concentration left out as unconfirmed; conditions: in vivo; q4D×4 regimen
From the text: (§4) The protocol for carrying out this tumor assay is well known to those of skill in the art.

Lewis Lung tumor = test: ip Lewis Lung tumor assay; type: in vivo; design: ILS: dose or concentration left out as unconfirmed; conditions: at MTD of […] mg/kg, q4D×4 regimen
From the text: as §4

P388 leukemia = conditions: for ILS (maximum increase in lifespan): ip P388 leukemia mice, ip days 1-5, slash-separated figures are separate experiments
cells = conditions: Struck et al., J. Med. Chem. (1966); cited from earlier work
in vivo = conditions: mouse, ip
[5] = in vivo ip B16 melanoma assay; conditions: mouse, in vivo, ip
Procedure: (§5) The cytotoxic activity of several compounds of Formula (I) was evaluated in vivo using B16 melanoma cells according to the following assay:
(§6) In this system, groups of eight B6D2F1 mice are inoculated ip with 0.5 ml of a 10% (w:v) brei of B16 melanoma prepared from pooled sc tumors excised at 14.noteq.21 days from C67B1 /6 donor mice. Daily treatment is begun 24 hours after tumor implantation and is continued daily for 10 days. The route of drug administration is ip. The mice are monitored daily for survival for 60 days. Antitumor activity is assessed by prolongation of median survival time.

B16 melanoma = test: in vivo ip B16 melanoma assay; conditions: for MTD (maximally tolerated dose): B6D2F1 mice
Procedure: as §5, §6

[6] = sc mammary adenocarcinoma 16/c assay; conditions: mouse, in vivo
Procedure: (§7) The mammary adenocarcinoma 16/c tumor is implanted sc in C3H mice, and the Formula (I) compound is administered ip on days 1, 5, 9, 13 and 17. Tumors are measured 3 weeks after implantation, and activity is assessed by degree of tumor growth inhibition.

[7] = system: mammary adenocarcinoma 16/c; test: sc mammary adenocarcinoma 16/c assay; conditions: for MTD (maximally tolerated dose): C3H mice, intermittent ip regimen
Procedure: as §7

[8] = ip Madison 109 lung carcinoma tumor assay; conditions: in vivo
[9] = system: Madison 109 lung carcinoma; test: ip Madison 109 lung carcinoma tumor assay; conditions: at MTD of 16 mg/kg, q4D×4 regimen
[10] = system: human tumor colony forming units; test: human tumor cloning assay (all tumor types); type: cell-based
Procedure: The cytotoxic activity of Compound No. 2 from TABLE A, namely μ-[1,2-bis(diphenylphosphino)ethane]bis-[chlorogold (I)], was also determined in a human tumor cloning assay. This procedure is described as follows:
[Salmon, et al., N. Engl. J. Med., 298:1321 (1978)].

Ovary tumor = conditions: Table 3, Ovary; response = ≤50% survival of tumor colony forming units
From the text: (§8) Tumor Specimens: Specimens were collected using asceptic technique and transported in medium containing Penicillin, Streptomycin, and Amphotericin B. Specimens which could not be immediately processed were minced into fragments 5 mm^3 or smaller, prior to transport. Effusions were collected with ten units of preservative free heparin per ml of effusion. Specimens were processed to obtain cell suspensions as soon as possible after removal from the patient.
(§9) Culture Methods: A two-layer soft agar culture system was used in these studies. […] Cell counts were performed on a hemacytometer after lysis of erythrocytes in acetic acid. A total of 500,000 nucleated cells were plated in a volume of 1 ml (0.3 percent agar) over 1 ml base layers (0.6 percent agar) in each culture. Cultures were incubated in humidified 37° C. incubators with an atmosphere of 5 percent CO2 in air and control plates monitored for growth using an inverted microscope. At the time of maximum colony formation (7-21 days in culture) final colony counts were obtained with a Bausch and Lomb FAS II image analysis system. Objects presenting a circular profile in two dimensions with a minimum diameter of 60 μm were scored as colonies by the system.
(§10) Drug Treatment: A total of six untreated or vehicle treated cultures were plated for determination of control growth in each experiment. […]

Breast tumor = conditions: Table 3, Breast; response = ≤50% survival of tumor colony forming units
From the text: as §8, §9, §10

Lung tumor = conditions: Table 3, Lung; response = ≤50% survival of tumor colony forming units
From the text: as §8, §9, §10

Unknown primary tumor = conditions: Table 3, Unknown primary; response = ≤50% survival of tumor colony forming units
From the text: as §8, §9, §10

Kidney tumor = conditions: Table 3, Kidney; response = ≤50% survival of tumor colony forming units
From the text: as §8, §9, §10

Corpus uterus tumor = conditions: Table 3, Corpus uterus; response = ≤50% survival of tumor colony forming units
From the text: as §8, §9, §10

Melanoma = conditions: Table 3, Melanoma; response = ≤50% survival of tumor colony forming units
From the text: as §8, §9, §10

[11] = ip M5076 reticulum cell sarcoma assay in mice; conditions: mouse, in vivo, ip
Procedure: as §1

[12] = Mus musculus, B16, Table AI, Formula (IA)
[13] = Table C, compound 2: seven experiments
[14] = Table 1, ≤30% survival of tumor colony forming units, 10 μg/ml, continuous exposure
[15] = Table 1, ≤50% survival of tumor colony forming units, 10 μg/ml, continuous exposure
[16] = Table 3, all tumor types, response = ≤50% survival of tumor colony forming units

With `c1ccc(P(CCP(c2ccccc2)c2ccccc2)c2ccccc2)cc1` [Compound 33, bis(1,2-diphenylphosphino)-ethane] the IC50 [1, 12] was 60 µM, the “MTD (maximally tolerated dose)” value ([2]; Table D) was 6 mg/kg and the “ILS max (maximum increase in lifespan)” value ([2]; Table D) was 70% and 96% and 68%. It also gave an MTD [3] of 4 mg/kg, an MTD (ADJ-PC6 Plasmacytoma; one experiment) of 6 mg/kg and a tumor growth inhibition (ADJ-PC6 Plasmacytoma; one experiment, at MTD of 6 mg/kg) of 94%. The tumor growth inhibition (ADJ-PC6 Plasmacytoma; second experiment, at MTD of 4 mg/kg) was 49%, the MTD [4] was 12 mg/kg and the ILS (Lewis Lung tumor) was 69%. For the same molecule, the “ILS (maximum increase in lifespan)” value (P388 leukemia; Table BI, compound 33: 41 experiments) was 98 ± 26%, the alleged cytotoxic activity (cells) was “alleged cytotoxic activity” and the MTD (in vivo) was 16 mg/kg. For the same molecule, the MTD [5] was 5 mg/kg, the ILS (B16 melanoma; at MTD of 5 mg/kg, three separate experiments, listed as Compound No. 2 from Table BI, 5 mg/kg) was 64% and 49% and 39% and the MTD ([6]; ip) was 30 mg/kg. For the same molecule, the MTD ([6]; iv) was 32 mg/kg, the tumor inhibition ([7]; iv, at MTD of 32 mg/kg) was 95% and the MTD [8] was 16 mg/kg. It also gave an ILS [9] of 50%.
In the case of `N.N.[Cl][Pt][Cl]` [cisplatin, reference compound], the “activity of positive control in ip M5076” value ([2]; all experiments, active = average ≥25 percent ILS) is reported as “active in all experiments”, the “tumor growth inhibition by positive control” value (ADJ-PC6 Plasmacytoma; in words) is reported as “complete tumor growth inhibition” and the “inhibition of growth of mammary adenocarcinoma 16/c by positive control” value ([7]; in words, generally produced) is reported as “complete inhibition”.
With `[Cl][Au][PH](CC[PH]([Au][Cl])(c1ccccc1)c1ccccc1)(c1ccccc1)c1ccccc1` [Compound 2, μ-[1,2-bis(diphenylphosphino)ethane]bis-[chlorogold (I)]] the IC50 ([1]; Table A, Formula (I)) was 8 µM, the “MTD (maximally tolerated dose)” value ([2]; Table C) was 4 mg/kg and the “ILS max (maximum increase in lifespan)” value [2, 13] was 76 ± 30%. For the same molecule, the “activity in the ip M5076 reticulum cell sarcoma assay” value [2] was “good activity”, the “# responses ≤30%/# evaluable” value [10, 14] was 6/19 and the “responses ≤30% (% of evaluable)” value [10, 14] was 32%. The “# responses ≤50%/# evaluable” value [10, 15] was 11/19, the “responses ≤50% (% of evaluable)” value [10, 15] was 58% and the “# responses/# evaluable, TOTALS” value [10, 16] was 11/19. The “responses, TOTALS (% of evaluable)” value [10, 16] was 58%, the “in vitro cytotoxic activity against primary human tumor cells” value ([10]; in words) was “substantial in vitro cytotoxic activity” and the “% Inhibition of tumor growth” value (ADJ-PC6 Plasmacytoma; Table G, ip days 1-10, tumors measured day 18, slash = separate experiments) was 96% and 93%. For the same molecule, the “antitumor activity in ADJ-PC6 Plasmacytoma” value (ADJ-PC6 Plasmacytoma; in words, based on Table G) was “excellent antitumor activity”, the “MTD (maximally tolerated dose)” value (P388 leukemia; Table B, B6D2F1 female mice, ip qD × 5) was 6 mg/kg and the “# responses/# evaluable” value (Ovary tumor) was 4/6. The “# responses/# evaluable” value (Breast tumor) was 1/3, the “# responses/# evaluable” value (Lung tumor) was 1/3 and the “# responses/# evaluable” value (Unknown primary tumor) was 2/3. For the same molecule, the “# responses/# evaluable” value (Kidney tumor) was 2/2, the “# responses/# evaluable” value (Corpus uterus tumor) was 1/1 and the “# responses/# evaluable” value (Melanoma) was 0/1. For the same molecule, the “MTD (maximally tolerated dose)” value (B16 melanoma; Table E, ip qD × 10) was 5 um/kg and the “MTD (maximally tolerated dose)” value ([7]; Table F) was 9 um/kg.
With `[Br][Au][PH](CC[PH]([Au][Br])(c1ccccc1)c1ccccc1)(c1ccccc1)c1ccccc1` [Compound 15] the “ILS max (maximum increase in lifespan)” value [2, 13] was 69%, the “ILS (maximum increase in lifespan)” value (P388 leukemia; Table B, compound 2: 35 experiments) was 116% and 80% and the “MTD (maximally tolerated dose)” value (B16 melanoma; Table E, ip qD × 10) was 13 um/kg. The “ILS (maximum increase in lifespan)” value (B16 melanoma; Table E, ip B16 melanoma mice, ip qD × 10, slash = separate experiments) was 49% and 41%, the “MTD (maximally tolerated dose)” value ([7]; Table F) was 26 um/kg and the “Inhibition (tumor growth inhibition)” value ([7]; Table F, sc tumor, ip days 1, 5, 9, 13, 17, slash = separate experiments) was 79%.
For `CC(CP(c1ccccc1)c1ccccc1)P(c1ccccc1)c1ccccc1` (stereo not drawn) [Compound 35, Bis(1,2-diphenylphosphino)propane], the IC50 [1, 12] was 50 µM, the “MTD (maximally tolerated dose)” value ([2]; Table D) was 24 mg/kg and the “ILS max (maximum increase in lifespan)” value ([2]; Table D) was 62%. For the same molecule, the MTD (in vivo) was 32 mg/kg.
For `C(=C/P(c1ccccc1)c1ccccc1)/P(c1ccccc1)c1ccccc1` [Compound 34, cis-bis(1,2-diphenylphosphino)ethylene], the IC50 [1, 12] was 25 µM, the MTD [11] was 5 mg/kg and the “ILS max (maximum increase in lifespan)” value ([2]; Table D) was 57%. The “activity in the ip M5076 reticulum cell sarcoma assay” value [2] was “good activity” and the MTD (in vivo) was 24 mg/kg.
